Results taken from patent US11026932B2, “Medicinal composition for preventing or treating inflammatory respiratory disease” (NATIONAL UNIVERSITY CORPORATION OKAYAMA UNIVERSITY, priority 2015, dated 2021).

Assays:
[1] = compared to a known RXR full agonist; cited from earlier work
emphysema model mice = assay: Emphysema model mice (intratracheal swine pancreatic elastase), evaluation of drug efficacy; assay type: in vivo, female BALB/c mice
Protocol: <Preparation of Emphysema Mice and Evaluation of Drug Efficacy>
Emphysema mice were prepared in accordance with the following procedures described and used for evaluation of drug efficacy.
Under anesthesia by pentobarbital or isoflurane administration, female BALB/c mice were intratracheally administered with swine pancreatic elastase to prepare (day 0) emphysema models.
Control mice were fed with a food containing bexarotene as an existing RXR full agonist.
On Days 4 and 14, the mice underwent tracheotomy again under anesthesia by pentobarbital or xylazine-ketamine administration, followed by insertion of an endotracheal tube, and static lung compliance was measured using a respiratory function measuring equipment ([…], SIREQ Inc.) for evaluating emphysematous alteration. Static lung compliance is an indication of extensibility of a lung tissue, and static lung compliance is increased in emphysema which is a disease associated with tissue destruction in an alveolar region.
After the procedure 3, the mice were euthanized by exsanguination. After bronchoalveolar lavage, a lung tissue was removed for evaluating emphysema.
The data obtained was analyzed by Anova significance test, in which p<0.05 to an untreated non-emphysema group was indicated by “*”. Furthermore, P<0.05 to an untreated emphysema group was indicated by “#”.

[2] = test system: bronchial asthma model mice; assay: Bronchial asthma model mice (OVA sensitization and inhaled OVA exposure), evaluation of drug efficacy; assay type: in vivo, female BALB/c mice; conditions: compared with the untreated group
Protocol: <Preparation of Bronchial Asthma Mice and Evaluation of Drug Efficacy>
Bronchial asthma mice were prepared and used for evaluation of drug efficacy in accordance with the following procedures.
Female BALB/c mice were systemically sensitized by intraperitoneal administration of ovalbumin (OVA) ([…] of OVA emulsified in 2.25 mg aluminum hydroxide in a total volume of 100 μL) on Day 0 and Day 14, and then was exposed to inhaled OVA by an ultrasonic nebulizer (for 20 min, 3 days: Days 28 to 30), to induce asthma reaction.
From Day 25, the mice were fed with a food containing an RXR agonist (NEt-4IB). On Day 32, the mice underwent tracheotomy under anesthesia by pentobarbital administration, followed by insertion of an endotracheal tube. After the tube was connected to a respiratory function measuring equipment, an airway hyperreactivity (airway resistance) was determined for evaluating airway constriction.
Forty eight hours after the last OVA inhalation exposure, airway hyperreactivity in the mice with an endotracheal tube was measured using a respiratory function measuring equipment (Flexivent, SIREQ Inc.). Here, airway hyperreactivity was induced by inhalation of methacholine.
After the procedure 2, the mice were euthanized by exsanguination. After bronchoalveolar lavage, a lung tissue was removed for evaluating an airway tissue.
Also, for a group fed with a common food as an untreated group, an asthma reaction was induced in the same way for determination of airway hyperreactivity and evaluation of airway inflammation.
Two groups which were not sensitized by an OVA and only exposed to inhaled OVA as non-asthma control groups (an RXR agonist medicated feed group and a common feed group) were also evaluated for airway hyperreactivity and airway inflammation in the same way.
The data obtained was analyzed by Anova significance test, in which p<0.01 and p<0.05 to an untreated non-asthma group were indicated by “**” and “*”, respectively. Furthermore, P<0.05 to an untreated asthma group was indicated by “#”.

[3] = emphysema model mice, 4 days after elastase administration, compared with drug non-administration group

| SMILES | increase in triglyceride [1] | static lung compliance (emphysema model mice; emphysema model mice fed food containing compound from Day -4, measured Days 4 and 14, compared with the untreated group) | macrophages in cell fraction of bronchoalveolar lavage fluid (emphysema model mice; [3]) | total cell number in cell fraction of bronchoalveolar lavage fluid (emphysema model mice; [3]) | neutrophil number in cell fraction of bronchoalveolar lavage fluid (emphysema model mice; emphysema model mice, 4 days after elastase administration, compared with the untreated group) | effect on bronchoalveolar lavage cell numbers compared with the RXR full agonist bexarotene (emphysema model mice; emphysema model mice, 4 days after elastase administration, total cell number and macrophages) | average interalveolar distance in lung tissue (emphysematous alteration) (emphysema model mice; emphysema model mice, formalin-fixed, HE-stained lung tissue, compared with the untreated group) | anti-inflammatory effect (emphysema model mice; emphysema model or bronchial asthma model, repeated oral administration (summary statement)) | IL-5 in supernatant of bronchoalveolar lavage fluid ([2]; ELISA) | IL-13 in supernatant of bronchoalveolar lavage fluid ([2]; ELISA) | inflammatory cell infiltration in a local site of the airway, histopathological investigation of the lung tissue ([2]; HE staining) | eosinophil number in cell fraction of bronchoalveolar lavage fluid [2] | lymphocyte number in cell fraction of bronchoalveolar lavage fluid [2] | total cell number in cell fraction of bronchoalveolar lavage fluid [2] |
| --- | --- | --- | --- | --- | --- | --- | --- | --- | --- | --- | --- | --- | --- | --- |
| CCN(c1ccc(C(C)C)c(OCC(C)C)c1)c1ccc(C(=O)O)cn1 [NEt-3IB] | reduces increase in triglyceride | – | – | – | – | – | – | – | – | – | – | – | – | – |
| CCN(c1ccc(OCC(C)C)c(C(C)C)c1)c1ccc(C(=O)O)cn1 [NEt-4IB] | – | significant improvement | significantly reduced | significantly reduced | reduction | remarkably higher | improvement in emphysematous alteration | significant anti-inflammatory effect | inhibition | inhibition | improvement in inflammatory cell infiltration | reduction | reduction | reduction |
